Molecules are shown by their SMILES.

The target of this test is Endothelial PAS domain-containing protein 1 (Homo sapiens, UniProt Q99814).
Chain of Endothelial PAS domain-containing protein 1 (Q99814 whole entry, the tested form may be a part): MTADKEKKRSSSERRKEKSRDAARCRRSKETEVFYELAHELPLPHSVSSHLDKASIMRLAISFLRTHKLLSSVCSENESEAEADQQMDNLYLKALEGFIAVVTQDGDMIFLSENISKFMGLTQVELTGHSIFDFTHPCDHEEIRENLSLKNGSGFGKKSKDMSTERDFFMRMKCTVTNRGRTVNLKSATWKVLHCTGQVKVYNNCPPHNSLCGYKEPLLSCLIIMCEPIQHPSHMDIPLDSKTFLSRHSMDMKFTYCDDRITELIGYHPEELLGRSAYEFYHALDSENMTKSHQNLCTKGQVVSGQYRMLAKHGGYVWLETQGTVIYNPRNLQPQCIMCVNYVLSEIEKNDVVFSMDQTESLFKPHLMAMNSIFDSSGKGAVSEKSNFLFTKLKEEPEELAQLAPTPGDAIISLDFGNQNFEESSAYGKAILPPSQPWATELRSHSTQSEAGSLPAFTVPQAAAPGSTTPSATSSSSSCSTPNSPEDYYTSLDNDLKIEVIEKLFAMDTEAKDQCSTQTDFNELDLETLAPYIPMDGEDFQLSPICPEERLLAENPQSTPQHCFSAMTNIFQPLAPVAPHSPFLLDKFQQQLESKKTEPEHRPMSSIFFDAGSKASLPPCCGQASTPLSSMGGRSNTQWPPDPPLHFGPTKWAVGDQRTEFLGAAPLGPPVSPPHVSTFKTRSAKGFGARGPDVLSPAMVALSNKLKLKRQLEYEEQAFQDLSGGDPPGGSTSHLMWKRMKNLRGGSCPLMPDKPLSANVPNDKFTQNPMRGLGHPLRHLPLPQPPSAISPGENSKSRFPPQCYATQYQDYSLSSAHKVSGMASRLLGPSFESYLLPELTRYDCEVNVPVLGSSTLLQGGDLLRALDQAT
`Cc1ccc(CN=Nc2cccc(C(=O)O)c2)s1` showed a half-inhibitory concentration (IC50) of 64.5 µM.

`CC(C)(C)c1ccc(CN=Nc2ccc(C(=O)O)cc2)cc1` returned an IC50 of 49.6 µM.

In the case of `O=C(O)c1ccc(N=NCc2ccc3ncccc3c2)cc1`, the midpoint of inhibition, the IC50, lay at 64.5 µM.

In turn, `Cc1nn(-c2ccccc2)c(Cl)c1CN=Nc1ccc(Cl)c(C(=O)O)c1` [2-chloro-5-[2-[(5-chloro-3-methyl-1-phenylpyrazol-4-yl)methylidene]hydrazinyl]benzoic acid] had an IC50 of 64.5 µM.

`Cc1nn(-c2ccccc2Cl)c(Cl)c1CN=Nc1cccc(C(=O)O)c1` [3-[2-[[5-chloro-1-(2-chlorophenyl)-3-methylpyrazol-4-yl]methylidene]hydrazinyl]benzoic acid] yielded an IC50 of 23.9 µM.

For `CCOc1cc(CN=Nc2cccc(C(=O)O)c2)ccc1OC(=O)c1ccccc1` [3-[(N''E)-N''-(4-benzoyloxy-3-ethoxy-benzylidene)hydrazino]benzoic acid], the IC50 came out at 4.22 µM.

`O=C(O)c1cccc(N=NCc2cccs2)c1` [3-[(N'E)-N'-(2-thenylidene)hydrazino]benzoic acid]: it took 5.74 µM to reach half-maximal inhibition (IC50).

Regarding `CSc1ccc(CN=Nc2cccc(C(=O)O)c2)cc1` [3-[(N'E)-N'-[4-(methylthio)benzylidene]hydrazino]benzoic acid], the midpoint of inhibition, the IC50, lay at 5.33 µM.

`CC(C)c1ccc(CN=Nc2ccc(C(=O)O)cc2)cc1` [4-[2-[(4-propan-2-ylphenyl)methylidene]hydrazinyl]benzoic acid] came in with an IC50 of 4.08 µM.

The molecule `COc1cc(CN=O)ccc1OCc1ccc(C(=O)O)cc1` [4-[[4-(hydroximinomethyl)-2-methoxy-phenoxy]methyl]benzoic acid] came in with an IC50 of 4.29 µM.

On to `O=C(O)c1cc(N=NCc2ccc3c(c2)OCCO3)ccc1Cl` [SMR000242957], for which the 50% inhibitory concentration (IC50) turned out to be 5.03 µM.

`COc1cccc(C/N=N/c2ncccc2[N+](=O)[O-])c1OC` [SMR000461041]: the IC50 was 8.21 µM.

`c1ccc(CN=Nc2ccc3ccccc3n2)nc1` [SMR002048648]: inhibition was half-maximal at 5.57 µM (IC50).

Molecule `CCOC(=O)Cc1csc(N=NCc2ccc(C(F)(F)F)cc2)n1` [ethyl 2-[2-[(2E)-2-[[4-(trifluoromethyl)phenyl]methylidene]hydrazinyl]-1,3-thiazol-4-yl]ethanoate] had a half-maximal inhibitory concentration (IC50) of 49.6 µM.

On to `O=C(O)c1ccc(N=NCc2ccc(C(F)(F)F)cc2)cc1` [sulfuric acid;4-[(N'E)-N'-[4-(trifluoromethyl)benzylidene]hydrazino]benzoic acid], for which the half-maximal inhibitory concentration (IC50) is 9.84 µM.

As a reminder, the IC50 is the point on the concentration scale where inhibition reaches its midpoint.

These data come from BindingDB's records for doi:10.7270/Q2WS8RVZ (Burnham Center For Chemical Genomics, 2012).
